Measured values taken from patent US20250268884A1, “Deuterated Domperidone for Treating Gastroparesis” (CinDome Pharma, Inc., priority 2022, published 2025).

Tests used:
[1] = system: adults with idiopathic or diabetic gastroparesis; experiment: ANMS GCSI-DD total and subscale scores, protocol-specified scoring method, Phase 2a; format: in vivo, human; design: key to ANMS GCSI-DD total score, Day 14/EOT, mean / ANMS GCSI-DD nausea/vomiting subscale score, Day 14/EOT, mean / ANMS GCSI-DD postprandial fullness/early satiety subscale score, Day 14/EOT, mean / ANMS GCSI-DD bloating subscale score, Day 14/EOT, mean: symptoms rated 0 (none) to 4 (very severe)
Experimental: Subjects were Evaluated as Follows: • Days −28 to −11: Screening procedures were performed. The ANMS GCSI-DD questionnaire was completed daily for at least 14 days prior to randomization (Day 1); • Days −10 to −3: The ANMS GCSI-DD questionnaire was completed daily. A GEBT was performed on a single day within this window, with breath samples obtained twice prior to consumption of a standardized, carbon-13 (^13C)-enriched meal and then at 45, 90, 120, 150, 180, and 240 minutes after meal consumption after an 8-hour fast. […] On Day 14 (±2 days), the PAGI-SYM and Clinical Grading Assessment questionnaires were completed prior to the final dose of study drug. • A GEBT was administered 30 minutes after study drug administration on Day 14 (±2 days). Breath samples were obtained twice prior to ^13C-enriched meal consumption and then at 45, 90, 120, 150, 180, and 240 minutes after meal consumption after an 8-hour fast. If a subject withdrew from the study prior to the Day 14 (±2 days) GEBT, attempts should have been made to perform a GEBT on the last day of study drug administration. Clinical Grading Assessment Scales were also performed.
The ANMS GCSI-DD covers 5 core relevant symptoms of gastroparesis: nausea, early satiety, postprandial fullness, upper abdominal pain, and vomiting. Bloating is included as an exploratory symptom. Symptoms are rated on a severity numeric response scale from 0 (none) to 4 (very severe). Vomiting is captured on a frequency response scale and scored as follows: 0 for no episodes, 1 for 1 episode, 2 for 2 episodes, 3 for 3 episodes, and 4 for 4 or more episodes. Subjects were asked to recall symptoms over the previous 24 hours and complete the ANMS GCSI-DD patient-reported symptom questionnaire for at least 14 days prior to randomization, on the day of randomization, and daily from Days 1 to 14 (±2 days).

[2] = system: cardiac conduction (QRS interval) in healthy subjects; settings: human, in vivo
Experimental: Categorical T-wave morphology analysis and measurement of PR and QRS intervals were fully performed manually using a semi-automated process in 3 of the 10 ECG replicates at each time point. Final quality control and diagnostic interpretations were performed by the study cardiologist.
An unstructured covariance structure was used to specify the repeated measures at post-dose time points for subject within treatment period. The model also included a subject-specific random effect.

SMILES: [2H]c1c([2H])c([2H])c2c([nH]c(=O)n2CCCN2CCC(n3c(=O)[nH]c4cc(Cl)ccc43)CC2)c1[2H] [Deudomperidone, 1-{3-[4-(5-chloro-2-oxo-2,3-dihydro-1H-1,3-benzodiazol-1-yl)piperidin-1yl]propyl}-2,3-dihydro(4,5,6,7-D4)-1H-1,3-benzodiazol-2-one]
- ANMS GCSI-DD bloating subscale score, Day 14/EOT, mean ([1]; 5 mg BID, Cohort 3, ITT): 2.33
- ANMS GCSI-DD bloating subscale score, change from baseline to Day 14/EOT ([1]; 5 mg BID, Cohort 3, ITT): −0.37
- ANMS GCSI-DD bloating subscale score, percent change from baseline to Day 14/EOT ([1]; 5 mg BID, Cohort 3, ITT): −16.16%
- ANMS GCSI-DD nausea/vomiting subscale score, Day 14/EOT, mean ([1]; 5 mg BID, Cohort 3, ITT): 1.00
- ANMS GCSI-DD nausea/vomiting subscale score, change from baseline to Day 14/EOT ([1]; 5 mg BID, Cohort 3, ITT): −0.52
- ANMS GCSI-DD nausea/vomiting subscale score, percent change from baseline to Day 14/EOT ([1]; 5 mg BID, Cohort 3, ITT): −41.08%
- ANMS GCSI-DD postprandial fullness/early satiety subscale score, Day 14/EOT, mean ([1]; 5 mg BID, Cohort 3, ITT): 2.00
- ANMS GCSI-DD postprandial fullness/early satiety subscale score, change from baseline to Day 14/EOT ([1]; 5 mg BID, Cohort 3, ITT): −0.78
- ANMS GCSI-DD postprandial fullness/early satiety subscale score, percent change from baseline to Day 14/EOT ([1]; 5 mg BID, Cohort 3, ITT): −29.47%
- ANMS GCSI-DD total score, Day 14/EOT, mean ([1]; 5 mg BID, Cohort 3, ITT): 1.78
- ANMS GCSI-DD total score, change from baseline to Day 14/EOT ([1]; 5 mg BID, Cohort 3, ITT): −0.56
- ANMS GCSI-DD total score, percent change from baseline to Day 14/EOT ([1]; 5 mg BID, Cohort 3, ITT): −26.84%
- ANMS GCSI-DD bloating subscale score, Day 14/EOT, mean ([1]; 10 mg BID, Cohort 1, ITT): 1.76
- ANMS GCSI-DD bloating subscale score, change from baseline to Day 14/EOT ([1]; 10 mg BID, Cohort 1, ITT): −1.08
- ANMS GCSI-DD bloating subscale score, percent change from baseline to Day 14/EOT ([1]; 10 mg BID, Cohort 1, ITT): −41.78%
- ANMS GCSI-DD nausea/vomiting subscale score, Day 14/EOT, mean ([1]; 10 mg BID, Cohort 1, ITT): 0.74
- ANMS GCSI-DD nausea/vomiting subscale score, change from baseline to Day 14/EOT ([1]; 10 mg BID, Cohort 1, ITT): −0.89
- ANMS GCSI-DD nausea/vomiting subscale score, percent change from baseline to Day 14/EOT ([1]; 10 mg BID, Cohort 1, ITT): −52.41%
- ANMS GCSI-DD postprandial fullness/early satiety subscale score, Day 14/EOT, mean ([1]; 10 mg BID, Cohort 1, ITT): 1.71
- ANMS GCSI-DD postprandial fullness/early satiety subscale score, change from baseline to Day 14/EOT ([1]; 10 mg BID, Cohort 1, ITT): −1.16
- ANMS GCSI-DD postprandial fullness/early satiety subscale score, percent change from baseline to Day 14/EOT ([1]; 10 mg BID, Cohort 1, ITT): −41.38%
- ANMS GCSI-DD total score, Day 14/EOT, mean ([1]; 10 mg BID, Cohort 1, ITT): 1.40
- ANMS GCSI-DD total score, change from baseline to Day 14/EOT ([1]; 10 mg BID, Cohort 1, ITT): −1.04
- ANMS GCSI-DD total score, percent change from baseline to Day 14/EOT ([1]; 10 mg BID, Cohort 1, ITT): −43.64%
- ANMS GCSI-DD bloating subscale score, Day 14/EOT, mean ([1]; 20 mg QD, Cohort 2, ITT): 1.47
- ANMS GCSI-DD bloating subscale score, change from baseline to Day 14/EOT ([1]; 20 mg QD, Cohort 2, ITT): −1.40
- ANMS GCSI-DD bloating subscale score, percent change from baseline to Day 14/EOT ([1]; 20 mg QD, Cohort 2, ITT): −51.82%
- ANMS GCSI-DD nausea/vomiting subscale score, Day 14/EOT, mean ([1]; 20 mg QD, Cohort 2, ITT): 0.40
- ANMS GCSI-DD nausea/vomiting subscale score, change from baseline to Day 14/EOT ([1]; 20 mg QD, Cohort 2, ITT): −1.20
- ANMS GCSI-DD nausea/vomiting subscale score, percent change from baseline to Day 14/EOT ([1]; 20 mg QD, Cohort 2, ITT): −67.94%
- ANMS GCSI-DD postprandial fullness/early satiety subscale score, Day 14/EOT, mean ([1]; 20 mg QD, Cohort 2, ITT): 1.37
- ANMS GCSI-DD postprandial fullness/early satiety subscale score, change from baseline to Day 14/EOT ([1]; 20 mg QD, Cohort 2, ITT): −1.38
- ANMS GCSI-DD postprandial fullness/early satiety subscale score, percent change from baseline to Day 14/EOT ([1]; 20 mg QD, Cohort 2, ITT): −50.14%
- ANMS GCSI-DD total score, Day 14/EOT, mean ([1]; 20 mg QD, Cohort 2, ITT): 1.08
- ANMS GCSI-DD total score, change from baseline to Day 14/EOT ([1]; 20 mg QD, Cohort 2, ITT): −1.33
- ANMS GCSI-DD total score, percent change from baseline to Day 14/EOT ([1]; 20 mg QD, Cohort 2, ITT): −55.24%
- ANMS GCSI-DD total score and all subscale scores at Day 14/End of Treatment ([1]; all deudomperidone treatment groups, placebo also decreased): decreased from baseline
- LS mean placebo-corrected ΔQRS (ΔΔQRS) [2]: ±1.1 ms
